Measured values from article PMC10078150 (2023).

What was measured:
[1] = system: F21T_hTelo (DNA, G4) GGGTTAGGGTTAGGGTTAGGG; test: FRET melting; conditions: K+ 10 mM (potassium phosphate); 10 mM potassium phosphate pH 7; 0.8 µM compound, 0.4 µM DNA, no competitor dsDNA
[2] = system: F21T_c-kit1 (DNA, G4) GGGAGGGCGCTGGGAGGAGGG; test: FRET melting; conditions: K+ 10 mM (potassium phosphate); 10 mM potassium phosphate pH 7; 0.8 µM compound, 0.4 µM DNA, no competitor dsDNA
[3] = system: F21T_k-ras (DNA, G4) GGGCGGTGTGGGAATAGGGAA; test: FRET melting; conditions: K+ 10 mM (potassium phosphate); 10 mM potassium phosphate pH 7; 0.8 µM compound, 0.4 µM DNA, no competitor dsDNA
[4] = system: 22_hTelo (DNA, G4) AGGGTTAGGGTTAGGGTTAGGG; test: fluorescent indicator displacement; conditions: K+ 40 mM (30 mM KCl + potassium phosphate); 10 mM potassium phosphate pH 7, 25 °C; 0.5 µM thiazole orange displaced, 0.25 µM DNA
[5] = system: 22_c-kit1 (DNA, G4) AGGGAGGGCGCTGGGAGGAGGG; test: fluorescent indicator displacement; conditions: K+ 40 mM (30 mM KCl + potassium phosphate); 10 mM potassium phosphate pH 7, 25 °C; 0.5 µM thiazole orange displaced, 0.25 µM DNA
[6] = system: 21_c-kit2 (DNA, G4) CGGGCGGGCGCGAGGGAGGGG; test: fluorescent indicator displacement; conditions: K+ 40 mM (30 mM KCl + potassium phosphate); 10 mM potassium phosphate pH 7, 25 °C; 0.5 µM thiazole orange displaced, 0.25 µM DNA
[7] = system: 22_c-myc (DNA, G4) TGAGGGTGGGTAGGGTGGGTAA; test: fluorescent indicator displacement; conditions: K+ 40 mM (30 mM KCl + potassium phosphate); 10 mM potassium phosphate pH 7, 25 °C; 0.5 µM thiazole orange displaced, 0.25 µM DNA
[8] = system: 22_k-ras (DNA, G4) AGGGCGGTGTGGGAATAGGGAA; test: fluorescent indicator displacement; conditions: K+ 40 mM (30 mM KCl + potassium phosphate); 10 mM potassium phosphate pH 7, 25 °C; 0.5 µM thiazole orange displaced, 0.25 µM DNA
[9] = system: 26_ds (DNA, duplex) CAATCGGATCGAATTCGATCCGATTG; test: fluorescent indicator displacement; conditions: K+ 40 mM (30 mM KCl + potassium phosphate); 10 mM potassium phosphate pH 7, 25 °C; 0.5 µM thiazole orange displaced, 0.25 µM DNA
[10] = system: F20T_c-kit2 (DNA, G4) GGGCGGGCGCGAGGGAGGGG; test: FRET melting; conditions: K+ 10 mM (potassium phosphate); 10 mM potassium phosphate pH 7; 0.8 µM compound, 0.4 µM DNA, no competitor dsDNA
[11] = system: F21T_c-myc (DNA, G4) GAGGGTGGGTAGGGTGGGTAA; test: FRET melting; conditions: K+ 10 mM (potassium phosphate); 10 mM potassium phosphate pH 7; 0.8 µM compound, 0.4 µM DNA, no competitor dsDNA

ΔTm [1] [°C]	ΔTm [2] [°C]	ΔTm [3] [°C]	DC50 [4] [nM]	DC50 [5] [nM]	DC50 [6] [nM]	DC50 [7] [nM]	DC50 [8] [nM]	DC50 [9] [nM]	ΔTm [10] [°C]	ΔTm [11] [°C]	SMILES
24.6	23.7	21.0	1060 ± 30	870 ± 20	850 ± 50	400 ± 30	450 ± 20	3900 ± 200	–	–	C(=N\[C@@H](COCc1ccc(-c2ccccn2)nc1)c1ccccc1)/c1ccc(OCc2cn(Cc3ccccc3)nn2)cn1.C(=N\[C@@H](COCc1ccc(-c2ccccn2)nc1)c1ccccc1)/c1ccc(OCc2cn(Cc3ccccc3)nn2)cn1.C(=N\[C@@H](COCc1ccc(-c2ccccn2)nc1)c1ccccc1)/c1ccc(OCc2cn(Cc3ccccc3)nn2)cn1.[Fe+2].[Fe+2]
–	27.2	–	1950 ± 90	1410 ± 30	1260 ± 60	800 ± 40	650 ± 30	5300 ± 300	–	–	C(=N\[C@@H](COCc1ccc(-c2ccccn2)nc1)c1ccccc1)/c1ccccn1.C(=N\[C@@H](COCc1ccc(-c2ccccn2)nc1)c1ccccc1)/c1ccccn1.C(=N\[C@@H](COCc1ccc(-c2ccccn2)nc1)c1ccccc1)/c1ccccn1.[Fe+2].[Fe+2]
–	–	41.8	1050 ± 50	790 ± 30	780 ± 50	300 ± 30	270 ± 10	2600 ± 100	11.9	5.2	C(=N\[C@H](COCc1ccc(-c2ccccn2)nc1)c1ccccc1)/c1ccc(OCc2cn(Cc3ccccc3)nn2)cn1.C(=N\[C@H](COCc1ccc(-c2ccccn2)nc1)c1ccccc1)/c1ccc(OCc2cn(Cc3ccccc3)nn2)cn1.C(=N\[C@H](COCc1ccc(-c2ccccn2)nc1)c1ccccc1)/c1ccc(OCc2cn(Cc3ccccc3)nn2)cn1.[Fe+2].[Fe+2]
27.6	–	–	2200 ± 100	960 ± 40	1050 ± 40	530 ± 20	420 ± 20	3800 ± 200	19.8	11.7	C(=N\[C@H](COCc1ccc(-c2ccccn2)nc1)c1ccccc1)/c1ccccn1.C(=N\[C@H](COCc1ccc(-c2ccccn2)nc1)c1ccccc1)/c1ccccn1.C(=N\[C@H](COCc1ccc(-c2ccccn2)nc1)c1ccccc1)/c1ccccn1.[Fe+2].[Fe+2]
